From ChEMBL document CHEMBL1147410, “Binding of an imidazopyridoindole at imidazoline I2 receptors” (Bioorg Med Chem Lett, 2004)

How the values were obtained:
[1] = Binding affinity for rat imidazoline I2 receptor from crude P2 membranes
[2] = Binding affinity for rat imidazoline I2 receptor from crude P2 membranes; 1-5
[3] = Binding affinity for rat imidazoline I2 receptor from crude P2 membranes; 350-880
[4] = target: T1, Adrenergic receptor alpha-2 (Rattus norvegicus, UniProt P22086+P19328+P22909); assay: Binding affinity for rat alpha-2 adrenergic receptor from crude P2 membranes
T1 sequence (P22086 whole entry): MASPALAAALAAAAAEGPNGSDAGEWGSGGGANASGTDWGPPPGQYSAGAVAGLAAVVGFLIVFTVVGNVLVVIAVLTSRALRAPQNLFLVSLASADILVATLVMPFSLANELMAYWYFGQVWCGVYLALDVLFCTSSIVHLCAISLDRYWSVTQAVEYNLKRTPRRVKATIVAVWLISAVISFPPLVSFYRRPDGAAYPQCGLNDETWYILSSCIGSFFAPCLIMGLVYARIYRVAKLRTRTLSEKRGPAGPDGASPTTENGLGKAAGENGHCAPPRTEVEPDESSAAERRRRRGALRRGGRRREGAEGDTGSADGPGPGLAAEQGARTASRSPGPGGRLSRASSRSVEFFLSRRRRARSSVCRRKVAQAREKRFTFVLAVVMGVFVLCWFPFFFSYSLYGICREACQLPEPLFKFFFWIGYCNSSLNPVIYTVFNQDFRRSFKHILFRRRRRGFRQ
T1 sequence (P19328 whole entry): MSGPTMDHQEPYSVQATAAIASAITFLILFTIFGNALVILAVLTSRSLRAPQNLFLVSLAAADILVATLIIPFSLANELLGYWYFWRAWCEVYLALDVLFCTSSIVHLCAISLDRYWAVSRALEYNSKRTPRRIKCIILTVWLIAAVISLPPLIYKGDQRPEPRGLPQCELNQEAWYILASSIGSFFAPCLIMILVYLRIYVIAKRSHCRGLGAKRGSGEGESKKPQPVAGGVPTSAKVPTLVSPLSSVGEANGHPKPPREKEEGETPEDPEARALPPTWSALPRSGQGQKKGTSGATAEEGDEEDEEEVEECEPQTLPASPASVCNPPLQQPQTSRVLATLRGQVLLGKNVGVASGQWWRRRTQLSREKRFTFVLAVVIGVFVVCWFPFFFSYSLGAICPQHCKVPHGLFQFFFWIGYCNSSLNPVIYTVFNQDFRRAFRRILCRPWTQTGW
T1 sequence (P22909 whole entry): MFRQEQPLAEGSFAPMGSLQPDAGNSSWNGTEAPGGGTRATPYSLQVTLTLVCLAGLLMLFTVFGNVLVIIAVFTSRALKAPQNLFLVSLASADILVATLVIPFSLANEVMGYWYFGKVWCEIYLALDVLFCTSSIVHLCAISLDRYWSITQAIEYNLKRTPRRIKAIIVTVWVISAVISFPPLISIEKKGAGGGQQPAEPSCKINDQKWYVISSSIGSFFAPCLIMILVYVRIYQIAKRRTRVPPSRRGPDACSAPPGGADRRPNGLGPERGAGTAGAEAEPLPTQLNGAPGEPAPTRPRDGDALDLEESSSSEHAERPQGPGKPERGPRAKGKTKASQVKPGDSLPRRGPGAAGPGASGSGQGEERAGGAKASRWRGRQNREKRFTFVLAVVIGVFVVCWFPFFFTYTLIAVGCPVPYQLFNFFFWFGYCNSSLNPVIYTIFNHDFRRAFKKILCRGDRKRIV

SMILES | Ki [1] [µM] | Ki [4] [µM] | other results
c1ccc2c(c1)CC(C1=NCCN1)O2 (stereo not drawn) | ~0.05 | – | –
c1ccc(OCC2=NCCN2)cc1 | – | – | Ki [2]: 0.005 µM
c1ccc2oc(-c3ncc[nH]3)cc2c1 | – | – | Ki [3]: ~0.88 µM
c1ccc2c3c([nH]c2c1)CNCC3 [TRYPTOLINE] | 0.0094 | 0.71 | –
c1ccc(CCC2=NCCN2)cc1 [PHENYZOLINE] | – | – | Ki [2]: 0.005 µM
c1coc(C2=NCCN2)c1 | 2.34 | – | –
C(=C\c1ccccc1)/C1=NCCN1 [TRACIZOLINE] | 0.002 | 7.413 | –
c1ccc2c3c([nH]c2c1)C1=NCCN1CC3 | 0.0073 | – | –
COc1ccc2c3c([nH]c2c1)CNCC3 | – | 8.84 | –
c1ccc2oc(C3=NCCN3)cc2c1 | < 0.01 | 4 | –
